According to paper PMC9674830, “A glutamine-based single α-helix scaffold to target globular proteins” (Nature Communications, 2022):

Tests used:
Type in all cases: physicochemical
[1] = CD spectroscopy (helicity); details: 30 μM peptide, ratio taken as sign of monomeric helix
Procedure: Peptide samples for CD spectroscopy were diluted to a final concentration of 30 μM in a volume of 400 μL in either 20 mM phosphoric acid (pH 2.8) or sodium phosphate (pH 7.4) buffer. Spectra were obtained at 278 K (unless stated otherwise) in a Jasco 815 UV spectro-photopolarimeter with a 1 mm optical path cuvette using a data interval of 0.2 nm in the 190−260 nm range with a scanning speed of 50 nm min^−1 and 20 accumulations. A blank spectrum acquired on the pertaining buffer under the same experimental conditions was subtracted from the sample spectrum. Thermal denaturation experiments were performed by acquiring a single accumulation spectrum with the same parameters at 10 K intervals, with a temperature ramp speed of 10 K min^−1 and an equilibration time of 1 min.

[2] = NMR residue-specific helical propensity (pHel, CheSPI from backbone chemical shifts); details: 278 K, pH 7.4, 100 μM; 9 contiguous residues for (P3-7)2, 16 for (P3-7)3
Procedure: Peptide samples for NMR spectroscopy were diluted to a final concentration of 100 μM in a volume of 400 μL in either 20 mM phosphoric acid (pH 2.8) or sodium phosphate (pH 7.4) buffer with added 10% v/v D2O and 10 μM DSS for internal chemical shift referencing, then filled into Shigemi tubes (Shigemi Co. Ltd, Tokyo, Japan). All NMR experiments were recorded at 278 K (unless stated otherwise) on either a Bruker Avance III 600 MHz or a Bruker Avance NEO 800 MHz spectrometer, both equipped with TCI cryoprobes, using TopSpin 4.0.8 for data acquisition (Bruker, Billerica, MA). Unlabeled synthetic peptides P1-5, P2-6, P3-7, P5-9 were characterized by two-dimensional homonuclear (TOCSY and NOESY) and heteronuclear (^1H-^13C HSQC) experiments. The TOCSY and NOESY mixing times were set to 70 and 200 ms, respectively. Water suppression was achieved by excitation sculpting[59] using a 2 ms long Squa100.1000 selective pulse. For peptide backbone resonance assignment, using uniformly ^15N,^13C labeled peptides, the following series of 3D triple resonance BEST-TROSY[60] experiments were acquired with 25% non-uniform sampling (NUS): HNCO, HN(CA)CO, HN(CO)CA, HNCA, and HN(CO)CACB. For some peptides, we resolved assignment ambiguities by also acquiring a 3D (H)N(CA)NH spectrum. Furthermore, 2D ^13C-detected CACO and CON experiments[61] were measured. […]

[3] = Oligomeric state by SEC-MALS and native MS; details: SEC-MALS (and native MS where stated)
Description: To analyze the origin of this behavior and exploit it for peptide design we studied four peptides of identical amino acid composition but with two potential Glni+4 → Leui interactions (pink arrows in Fig. 1a) at different relative positions. The first such interaction is common to all peptides and the second one is shifted 1 (peptide P1-5), 2 (P2-6), 3 (P3-7), or 5 (P5-9) positions towards the C-terminus. After confirming that they were monomeric under our experimental conditions by size exclusion chromatography coupled to multiple angle light scattering (SEC-MALS) (Supplementary Fig. 1d), we used solution-state nuclear magnetic resonance (NMR) spectroscopy to probe their structural properties by exploiting the quantitative dependence of ^13Cα and ^1Hα NMR chemical shifts on residue-specific helical propensity, where larger ^13Cα and lower ^1Hα shifts indicate higher helicity.
We then used CD spectroscopy to study the secondary structure of peptides containing two and three pairs of concatenated Glni+4 → Leui interactions, (P3-7)2 and (P3-7)3, and obtained that they are highly helical and monomeric (Θ222 nm/Θ208 nm < 1) (Fig. 1c, d). […]
These samples were treated with 400 μL of methanol to precipitate the serum proteins and centrifuged for 30 min at 277 K. The supernatant was filtered and analyzed by HPLC to calculate the percentage of intact peptide in the sample. […]

KKPGASLAALQALQALQAAQAAKKY [(P3-7)2, Gln-based single α-helix scaffold peptide]
Θ222 nm/Θ208 nm [1]: < 1
Residue-specific helical propensity (pHel) over contiguous residues [2]: > 0.9
Oligomeric state [3]: monomeric
